In patent US10940139B2, “Compounds that interact with the Ras superfamily for the treatment of cancers, inflammatory diseases, rasopathies, and fibrotic disease” (Shy Therapeutics LLC, priority 2017, dated 2021):

Target: KRas G12D/Q61H double mutant (Homo sapiens (Human), UniProt P01116, G12D/Q61H)
Experiment: Ras GTP binding domain inhibition assay (labeled GTP)
Conditions: 20 μM compound; KRas G12D/Q61H double mutant; read-out: % Inhibition at 20 μM of K-Ras mutant and wild-type protein, KRas G12D Q61H
Protocol: Buffer-I: • 50 mM Tris, pH 7.5 • 150 mM NaCl (optional) • 1 mM MgCl2 • 1 mM DTT. • KRas G12D mutant protein was expressed as a His-tagged protein. Purified His-KRas G12D protein was diluted in buffer-I to a final concentration of 3-10 μg/ml. • 200 μl of the diluted His-KRas G12D protein was added to a nickel coated 96 well plate and incubated overnight at 4° C. • The next day, wells were washed 3× in 200 μl of Buffer-I. • Then 200 μl of Buffer-I were added to each well in the presence of 1% DMSO. • Tested compounds were added to the protein-coated wells at a concentration of 20 μM, and incubated for 3 hours at room temperature. While performing IC50 measurements a serial dilution of all tested concentrations was prepared.
Then 22 μl of Cy3-GTP or Cy5-GTP was added to each well. The labeled GTP was incubated for 45 min. at room temperature. • Following GTP incubation, wells were washed 3× in Buffer-I, and 200 μl of Buffer-I were added to each well. • Following washes, the amount of bound labeled-GTP was measured with an Eppendorf AF2200 plate reader.
By substituting KRas G12D mutant protein with KRas G12C mutant, KRas wild type, KRas Q61H mutant, KRas G12D/Q61H double mutant or KRas G12C/Q61H double mutant under the assay conditions described above, KRas G12C mutant KRas wild type, KRas Q61H mutant, KRas G12D/Q61H double mutant and KRas G12C/Q61H double mutant inhibition, respectively, were each determined.

Chain of KRas G12D/Q61H double mutant (P01116-2 other isoform, or with tags, fused parts or gaps G12D/Q61H): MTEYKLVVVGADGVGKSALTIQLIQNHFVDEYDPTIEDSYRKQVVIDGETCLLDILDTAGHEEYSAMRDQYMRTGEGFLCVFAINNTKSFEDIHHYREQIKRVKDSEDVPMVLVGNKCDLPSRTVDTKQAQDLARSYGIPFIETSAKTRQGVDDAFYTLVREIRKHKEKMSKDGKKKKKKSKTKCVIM

SMILES | inhibition at 20 µM
Cc1ccc(OC(C)C(=O)Nc2ccccc2S(=O)(=O)NC(C)(C)C)c(Br)c1 (stereo not shown) | 1 to 25%
O=C(COc1ccccc1C(=O)c1cnn(-c2ccccc2)c1)NCC1CCCCC1 | 25 to 50%
Cc1cc(C)c(C)c(S(=O)(=O)N2CCN(C(C)C(=O)NCc3ccc4c(c3)OCO4)CC2)c1C (stereo not shown) | 1 to 25%
CC1CN(C(=O)CSc2nnc(Cc3cccc4ccccc34)n2C2CCCCC2)CC(C)O1 (stereo not shown) | 25 to 50%
CCn1c(SCc2csc(-c3ccc(OC)c(OC)c3)n2)nc2ccccc21 | 25 to 50%
COc1ccc(S(=O)(=O)N2CCCCCC2)cc1C(=O)NCCc1ccccc1C | 1 to 25%
CC(C)c1ccc(-c2nc(C(=O)NC(C)c3ccccn3)cs2)cc1 (stereo not shown) | 25 to 50%
COC(=O)c1c(NC(=O)Cc2cc(OC)c(OC)c(OC)c2)sc2c1CCCCC2 | 25 to 50%
CCOc1cc(CN(C(=O)CCc2nc(-c3ccsc3)no2)C2CC2)ccc1OC(F)(F)F | 25 to 50%
Cc1nn(Cc2ccccc2Cl)c(C)c1CN(C)S(=O)(=O)c1cccs1 | 1 to 25%
COc1ccc(CCNC(=O)COC(=O)c2c(NC(=O)C(C)(C)C)sc(C)c2C)cc1 | 25 to 50%
COc1ccccc1CN(Cc1coc(-c2ccc(F)cc2)n1)Cc1cccs1 | 1 to 25%
O=C(NN(Cc1ccccc1)Cc1ccccc1)c1n[nH]c(=O)c2ccccc12 | 25 to 50%
COCCCCC(=O)N(c1cc(C)ccc1F)C(C)c1ccc(C)cc1 (stereo not shown) | 1 to 25%
CC1CC1COC(=O)c1sccc1S(=O)(=O)N1CCSCC1 (stereo not shown) | 25 to 50%
FC(F)n1ccnc1CCNCc1csc(COc2ccccc2)n1 | 51 to 75%
Clc1ccccc1SCCCSc1nnc(N2CCCC2)s1 | 25 to 50%
CN(C)S(=O)(=O)c1ccc(CN2CCCCCC2/C=C/c2ccccc2)o1 (stereo not shown) | 25 to 50%
CN(C)S(=O)(=O)c1cccc(CSCCOc2cccc(Cl)c2)c1 | 25 to 50%
CCC(C)Oc1cc(-c2nc(C3CCCN3C(=O)OC(C)(C)C)no2)ccn1 (stereo not shown) | 25 to 50%
COCCCOC1(CSc2nnc(COc3cc(C)ccc3C)o2)CCCC1 | 25 to 50%
COc1ccc(OCCCn2c(C(F)(F)F)c(Br)cnc2=O)cc1 | 25 to 50%
FC(F)(F)C1CCCN(Cc2ccccc2CN2CCCC(C(F)(F)F)C2)C1 (stereo not shown) | 25 to 50%
CCSC1CCCCC1NCc1nc(-c2ccc(OC(F)F)c(OC)c2)no1 (stereo not shown) | 25 to 50%
Cn1ccnc1C(NCCOc1ccc2cc(Br)ccc2c1)C1CC1 (stereo not shown) | 1 to 25%

SMILES | inhibition at 20 µM
Cc1occc1-c1nnc(SCC2CCN(C(=O)OCc3ccccc3)CC2)o1 | 25 to 50%
Cc1ccc(C)c(OCc2nnc(SCc3c(C#N)c(C)nn3-c3ccccc3)o2)c1 | 25 to 50%
CCOCCOc1ccc(Br)cc1CNCc1cccc(N2CC=CC2)c1 | 25 to 50%
COC(=O)C(C)CN(Cc1ccc(OCc2ccc([N+](=O)[O-])cc2)c(OC)c1)C1CC1 (stereo not shown) | 25 to 50%
O=C(c1ccoc1)N1CCC(Nc2cc(Cl)ccc2OCC2CCC2)CC1 | 25 to 50%
CCCN(CC1CC1)S(=O)(=O)Oc1ccc(N(C)S(=O)(=O)c2cccs2)cc1 | 25 to 50%
CCOc1ccc(-c2nc(CSc3nc4ccccc4n3CCOC)cs2)cc1OC | 25 to 50%
COc1cc(CN(C)C(=O)Cc2ccc(Br)cc2)ccc1OCc1ccccc1 | 1 to 25%
COc1ccc(-c2nc(CSc3nnc(CC(C)c4ccccc4)o3)cs2)cc1OC (stereo not shown) | 25 to 50%
CC(C)n1cnnc1CNCc1ccc(OCc2ccccc2)cc1OCc1ccccc1 | 1 to 25%
CCOC(COCCNC(=O)c1ccsc1NC(=O)c1ccc(C(C)C)cc1)OCC | 1 to 25%
OC(CNC(Cc1ccccc1)c1nc(-c2ccccc2)no1)COCc1ccccc1Cl (stereo not shown) | 25 to 50%
COCCN(Cc1ccccc1)CC(O)COC(c1ccc(OC)cc1)c1ccc(OC)cc1 (stereo not shown) | 1 to 25%
CCn1c(SCCCc2nc3ccccc3o2)nc2ccsc2c1=O | 1 to 25%
CC(C)(C)c1noc(COc2ccc(C(=O)c3ccc(F)cc3)cc2)n1 | 25 to 50%
CCC(C)N(C(=O)CS(=O)(=O)c1nc(-c2ccccc2)cs1)C(C)CC (stereo not shown) | 25 to 50%
CC1CCCN(S(=O)(=O)c2ccc(NCc3ccc(C(=O)N(C)C(C)C)cc3)c([N+](=O)[O-])c2)C1 (stereo not shown) | 25 to 50%
NC(=O)C1CCCN1Cc1cccc(NC(=O)c2ccccc2OCCOc2ccccc2)c1 (stereo not shown) | 25 to 50%
CN(Cc1nnc(-c2ccc(F)cc2)o1)CC12CC3CC(CC(C3)C1)C2 | 25 to 50%
CCOc1ccccc1CN(CCCn1ccnc1)C(=O)Nc1ccc(OC(F)F)c(Cl)c1 | 25 to 50%
Cc1sc2nc(-c3ccccn3)nc(NCC(=O)N3CCC(O)CC3)c2c1-c1ccccc1 | 25 to 50%
CN(C)S(=O)(=O)c1ccc(OCCn2c(=O)c(N3CCCCC3)c(N)n(C)c2=O)cc1 | 1 to 25%
O=C(COC1CCCC1)Nc1nnc(-c2ccccn2)[nH]1 | 51 to 75%
O=C(COC1CCCCC1)Nc1nnc(-c2ccccn2)[nH]1 | 51 to 75%
O=C(COCC(F)(F)F)Nc1nnc(-c2ccccn2)[nH]1 | 25 to 50%

SMILES | inhibition at 20 µM
Cc1cc(C)c(S(=O)(=O)Nc2ccc(Oc3ccccc3C#N)nc2)c(C)c1 | 25 to 50%
CCCOc1ccc2ccccc2c1CN(C)Cc1nnc(-c2ccccc2)o1 | 25 to 50%
CC(COc1ccc(Oc2ccccc2)cc1)Oc1ccc(C(F)(F)F)cn1 (stereo not shown) | 51 to 75%
COc1cccc(-c2nc(C(=O)N3CCC(c4ccccc4)CC3)c[nH]2)c1OC | 25 to 50%
COc1ccc(C(=O)NC(C)Cc2ccc(-c3ccccc3)cc2)c(OC)c1OC (stereo not shown) | 25 to 50%
COCCCN(C(=O)c1ccc(-n2nc(C)c(Cl)c2C)cc1)S(=O)(=O)c1ccc(OC)cc1 | 25 to 50%
CCCn1c(-c2cccc(C)c2)nnc1S(=O)(=O)Cc1csc(-c2cccc(OC)c2)n1 | 51 to 75%
CCOC(=O)c1c(-c2ccc(C)cc2)csc1NC(=O)CN(C)CC(=O)NC1CCC(O)CC1 (stereo not shown) | 25 to 50%
O=C(CN(Cc1csc(COc2ccc(F)cc2)n1)Cc1ccco1)Nc1ccccc1 | 25 to 50%
COc1ccc(OC)c(CCC(=O)N2CCN(c3ncc(C(F)(F)F)cc3Cl)CC2)c1 | 25 to 50%
CCN1CCN(Cc2ccc(NC(=O)c3cc(OC)c(OC)cc3OC)cc2)CC1 | 1 to 25%
O=C(C1CCN(c2ccccc2[N+](=O)[O-])CC1)N1CCCC1C1CCCCC1 (stereo not shown) | 1 to 25%
COCCn1c(SC(C)c2nc(-c3cccnc3)no2)nc2cc(Cl)ccc2c1=O (stereo not shown) | 25 to 50%
C#CCN(Cc1ccc(C)cc1)c1ccc(C#N)cc1[N+](=O)[O-] | 1 to 25%
Cc1cc(C)c2c(N)c(C(=O)OCc3ccc(C(=O)N4CCCC4)cc3)sc2n1 | 1 to 25%
COc1cccc(N2CCN(C(=O)c3ccccc3SCC(=O)N3CCc4ccccc43)CC2)c1 | 1 to 25%
COc1ccc(COCC(CNC(=O)c2cc(C)cc(C)c2)OC(=O)c2cc(C)cc(C)c2)cc1 (stereo not shown) | 25 to 50%
O=c1[nH]c(NCC(O)c2ccccc2)nc2ccccc12 (stereo not shown) | 1 to 25%
CCOc1ccc(Oc2ccc(C(F)(F)F)cc2NCc2nc(C)no2)cc1 | 51 to 75%
O=C(CCOCc1ccccc1)Nc1nnc(-c2ccccn2)[nH]1 | 51 to 75%
CCCOc1nc2ccccc2nc1N1CCN(c2ccccc2F)CC1 | 25 to 50%
COc1ccc(N(C(=O)c2ccc(COc3ccccc3)o2)C(C)C2CC2)cc1 (stereo not shown) | 25 to 50%
COC(=O)c1ccc(CCSc2nnc(COc3cccc(C)c3)o2)cc1 | 25 to 50%
